Key:
[1] = Clearance in dog at 3 mg/kg, iv; format: ADME, organism-based, Canis lupus familiaris; design: dose 3 mg/kg, route intravenous; conditions: in vivo
[2] = Clearance in dog at 10 mg/kg, po; format: ADME, organism-based, Canis lupus familiaris; design: dose 10 mg/kg, route oral; conditions: in vivo
[3] = Volume of distribution at steady state in dog at 3 mg/kg, iv; format: ADME, organism-based, Canis lupus familiaris; design: dose 3 mg/kg, route intravenous; conditions: in vivo, read-out: Vdss
[4] = Oral bioavailability in rat at 2.7 mg/kg; format: ADME, organism-based; conditions: in vivo
[5] = Oral bioavailability in dog at 10 mg/kg; format: ADME, organism-based, Canis lupus familiaris; conditions: in vivo
[6] = Terminal half life in dog at 3 mg/kg, iv; format: ADME, organism-based, Canis lupus familiaris; design: dose 3 mg/kg, route intravenous; conditions: in vivo, read-out: beta t1/2 (converted)
[7] = Half life in dog at 2.7 mg/kg, po; format: ADME, organism-based, Canis lupus familiaris; design: dose 2.7 mg/kg, route oral; conditions: in vivo
[8] = Half life in dog at 3 mg/kg, po; format: ADME, organism-based, Canis lupus familiaris; design: dose 3 mg/kg, route oral; conditions: in vivo
Cytochrome P450 2C9 = Cytochrome P450 2C9 (Homo sapiens, UniProt P11712); test: Inhibition of CYP2C9; format: ADME
[9] = Clearance in rat at 2 mg/kg; format: ADME, organism-based; design: dose 2 mg/kg; conditions: in vivo
Rattus norvegicus = test: Hepatic blood flow in rat at 0.5 to 2 mg/kg; format: ADME, organism-based, Liver; design: dose 0.5-2 mg/kg; conditions: in vivo
[10] = Clearance in dog at 2 mg/kg; format: ADME, organism-based, Canis lupus familiaris; design: dose 2 mg/kg; conditions: in vivo
Canis familiaris = test: Hepatic blood flow in dog at 0.5 to 2 mg/kg; format: ADME, organism-based, Canis lupus familiaris, Liver; design: dose 0.5-2 mg/kg; conditions: in vivo
[11] = Volume of distribution at steady state in rat at 2 mg/kg; format: ADME, organism-based; design: dose 2 mg/kg; conditions: in vivo, read-out: Vdss
[12] = Volume of distribution at steady state in dog at 2 mg/kg; format: ADME, organism-based, Canis lupus familiaris; design: dose 2 mg/kg; conditions: in vivo, read-out: Vdss
[13] = Terminal half life in rat at 2 mg/kg, iv; format: ADME, organism-based; design: dose 2 mg/kg, route intravenous; conditions: in vivo, read-out: beta t1/2 (converted)
[14] = Terminal half life in dog at 2 mg/kg, iv; format: ADME, organism-based, Canis lupus familiaris; design: dose 2 mg/kg, route intravenous; conditions: in vivo, read-out: beta t1/2 (converted)
[15] = Half life in rat at 2 mg/kg, po; format: ADME, organism-based; design: dose 2 mg/kg, route oral; conditions: in vivo
[16] = Half life in dog at 2 mg/kg, po; format: ADME, organism-based, Canis lupus familiaris; design: dose 2 mg/kg, route oral; conditions: in vivo
[17] = Oral bioavailability in rat at 2 to 5 mg/kg; format: ADME, organism-based; conditions: in vivo
[18] = Oral bioavailability in dog at 2 to 5 mg/kg; format: ADME, organism-based, Canis lupus familiaris; conditions: in vivo
[19] = Fraction unbound in human serum; format: ADME, cell-free
[20] = Fraction unbound in dog serum; format: ADME, cell-free, Canis lupus familiaris
[21] = target: Voltage-gated inwardly rectifying potassium channel KCNH2 (Homo sapiens, UniProt Q12809); test: Inhibition of human ERG
[22] = Clearance in rat hepatocytes assessed per million cells; format: ADME, cell-based, Hepatocyte; conditions: read-out: CLH
C6 = test: Antitumor activity against rat C6 cells xenografted in nude mouse assessed as tumor growth inhibition at 12.5 to 50 mg/kg bid for 22 days; format: functional; conditions: dose mg/kg 12.5-50
Calu-6 [23] = test: Antitumor activity against human Calu6 cells xenografted in nude mouse assessed as tumor growth inhibition at 12.5 mg/kg bid; format: functional; conditions: read-out: TGI
Calu-6 [24] = test: Antitumor activity against human Calu6 cells xenografted in nude mouse assessed as tumor growth inhibition at 50 mg/kg bid; format: functional; conditions: read-out: TGI
LoVo = test: Antitumor activity against human LoVo cells xenografted in nude mouse assessed as tumor growth inhibition at 50 mg/kg bid for 22 days; format: functional; conditions: 528 h, read-out: TGI
Mus musculus [25] = test: Inhibition of VEGFR2 phosphorylation in C6 cells xenografted in nude mouse lungs at 3 to 50 mg/kg bid after 10 hrs by Western blot analysis; format: functional; conditions: dose mg/kg 3-50
Mus musculus [26] = test: Inhibition of PDGFRbeta phosphorylation in C6 cells xenografted in nude mouse lungs at 3 to 50 mg/kg bid after 10 hrs by Western blot analysis; conditions: dose mg/kg 3-50

Cytochrome P450 2C9, sequence (P11712 whole entry): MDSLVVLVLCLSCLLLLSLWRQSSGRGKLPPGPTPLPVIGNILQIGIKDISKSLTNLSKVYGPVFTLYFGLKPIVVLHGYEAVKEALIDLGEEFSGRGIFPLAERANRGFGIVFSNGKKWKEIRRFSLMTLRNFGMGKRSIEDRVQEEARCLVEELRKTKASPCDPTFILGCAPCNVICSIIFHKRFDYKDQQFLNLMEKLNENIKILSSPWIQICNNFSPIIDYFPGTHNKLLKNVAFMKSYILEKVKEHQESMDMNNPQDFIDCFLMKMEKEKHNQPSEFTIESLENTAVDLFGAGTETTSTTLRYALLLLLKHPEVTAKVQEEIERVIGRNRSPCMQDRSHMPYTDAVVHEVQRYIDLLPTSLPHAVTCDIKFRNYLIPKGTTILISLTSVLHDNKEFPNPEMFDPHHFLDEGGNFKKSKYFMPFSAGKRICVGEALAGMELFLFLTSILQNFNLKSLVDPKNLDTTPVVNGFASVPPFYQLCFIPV
Voltage-gated inwardly rectifying potassium channel KCNH2, sequence (Q12809 whole entry): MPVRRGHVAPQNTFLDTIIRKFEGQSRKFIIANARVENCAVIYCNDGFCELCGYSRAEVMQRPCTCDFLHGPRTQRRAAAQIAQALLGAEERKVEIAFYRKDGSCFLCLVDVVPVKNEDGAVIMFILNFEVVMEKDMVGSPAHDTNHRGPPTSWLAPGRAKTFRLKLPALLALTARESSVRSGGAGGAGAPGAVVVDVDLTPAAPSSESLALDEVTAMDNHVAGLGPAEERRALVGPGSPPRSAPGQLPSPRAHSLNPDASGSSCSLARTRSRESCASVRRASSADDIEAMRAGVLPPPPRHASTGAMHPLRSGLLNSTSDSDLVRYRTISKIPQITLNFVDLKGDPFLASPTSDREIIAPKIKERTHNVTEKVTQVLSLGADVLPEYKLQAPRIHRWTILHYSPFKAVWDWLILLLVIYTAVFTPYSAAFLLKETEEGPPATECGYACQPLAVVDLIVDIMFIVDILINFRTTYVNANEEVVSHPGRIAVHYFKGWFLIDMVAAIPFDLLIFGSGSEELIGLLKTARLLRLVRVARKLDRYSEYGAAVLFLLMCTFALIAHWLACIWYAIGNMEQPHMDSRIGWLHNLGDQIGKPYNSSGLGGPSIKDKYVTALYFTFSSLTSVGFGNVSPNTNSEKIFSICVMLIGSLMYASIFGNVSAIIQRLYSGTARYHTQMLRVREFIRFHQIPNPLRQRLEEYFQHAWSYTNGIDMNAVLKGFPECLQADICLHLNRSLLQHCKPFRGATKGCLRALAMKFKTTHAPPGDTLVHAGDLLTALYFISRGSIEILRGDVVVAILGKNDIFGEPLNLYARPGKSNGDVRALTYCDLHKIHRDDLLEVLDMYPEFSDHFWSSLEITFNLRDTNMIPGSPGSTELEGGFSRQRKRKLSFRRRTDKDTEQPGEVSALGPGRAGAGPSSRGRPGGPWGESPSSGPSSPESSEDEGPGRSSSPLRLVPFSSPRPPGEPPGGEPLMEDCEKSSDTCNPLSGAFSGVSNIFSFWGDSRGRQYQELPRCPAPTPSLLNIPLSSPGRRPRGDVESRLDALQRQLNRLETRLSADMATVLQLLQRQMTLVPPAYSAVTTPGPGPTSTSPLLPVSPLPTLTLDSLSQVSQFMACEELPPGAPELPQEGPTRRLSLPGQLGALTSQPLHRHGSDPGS

Compound `COc1cc2ncnc(Oc3ccc(CC(=O)Nc4cnn(C(C)C)c4)cc3)c2cc1OC.O=P(O)(O)O` has a clearance [1] of 1.7 mL/min/kg, a CL/F [2] of 5.2 mL/min/kg and a Vd [3] of 0.7 L/kg. It also gave a bioavailability [4] greater than 90%, a bioavailability [5] greater than 90% and a half-life [6] of 4.7 h. The half-life [7] was 4.3 h and the half-life [8] was 6.8 h.

`COc1cc2ncnc(Oc3ccc(CC(=O)Nc4cnn(C(C)C)c4)cc3)c2cc1OC` gave an IC50 (Cytochrome P450 2C9) of 8 µM, a clearance [9] of 8.9 mL/min/kg and a QH (Rattus norvegicus) of 6%. It also gave a clearance [10] of 3.3 mL/min/kg, a QH (Canis familiaris) of 9% and a Vd [11] of 0.8 L/kg. For the same compound, the Vd [12] was 0.9 L/kg, the half-life [13] was 1.3 h and the half-life [14] was 4.2 h. For the same compound, the half-life [15] was 6 h, the half-life [16] was 6.8 h and the bioavailability [17] was 34%. It also gave a bioavailability [18] of 23%, a fraction unbound [19] of 0.033 and a fraction unbound [20] of 0.07. It also gave an IC50 [21] of 137 µM, a hepatocyte CLint [22] of 3.5 µL/min/1e6 cells and a TGI (C6) of 64%. It also gave an inhibition in vivo at 12.5 mg/kg (Calu-6 [23]) of 72%, an inhibition in vivo at 50 mg/kg (Calu-6 [24]) of 81% and an inhibition in vivo at 50 mg/kg (LoVo) of 67%. For the same compound, the “inhibition (INH)” value (Mus musculus [25]) was 60% and the “inhibition (INH)” value (Mus musculus [26]) was 60%.

— ChEMBL document CHEMBL1938371, “Discovery of AZD2932, a new Quinazoline Ether Inhibitor with high affinity for VEGFR-2 and PDGFR tyrosine kinases” (Bioorg Med Chem Lett, 2012)
